Values quoted from earlier work in EP0136475A2, “Novel growth hormone-releasing peptides and method of treating mammals therewith” (The Administrators of The Tulane University Educational Fund, priority 1983, dated 1985).
No end group written: not given here.

Tested on: rat anterior pituitary

Row | Substance | intrinsic biological activity (reported by Spiess et al.) | growth hormone(GH)-releasing activity (rat anterior pituitary in vitro and in vivo)
1 | hp GRF(1-29)-NH2: a synthetic amidated fragment of the natural hp GRF (YADAIFTNSYRKVLGQLSARKLLQDIMSR-NH2; UniProt P01286 32-60, looked up, fragment) | full intrinsic biological activity | –
2 | hpGRF: growth hormone-releasing factors (GRF) of human pancreatic islet tumor origin (YADAIFTNSYRKVLGQLSARKLLQDIMSRQQGESNQERGARARL-NH2; ends and bridges not checked; UniProt P01286 32-75, looked up) | – | possess growth hormone(GH)-releasing activity
